Laboratory results from US20090306060A1 (priority 2004, published 2009).
Read-outs that look alike come from different tables or passages of the source.

Tested on: hybrid corn varieties
Format: in vivo
Details: for GY BU (2) (Grain Yield in bushels) / PC # (1): IFSA Inbred FR-A
[1] = Fludioxonil 3.5 GA/100 Kg seed, Azoxystrobin 1 GA/100 Kg seed
[2] = IFSA Inbred FR-C, Fludioxonil 3.5 GA/100 Kg seed, Azoxystrobin 1 GA/100 Kg seed
[3] = IFSA Inbred FR-D, Fludioxonil 3.5 GA/100 Kg seed, Azoxystrobin 1 GA/100 Kg seed
[4] = IFSA Inbred FR-F, Fludioxonil 3.5 GA/100 Kg seed, Azoxystrobin 1 GA/100 Kg seed
[5] = IFSA Inbred FR-G, Fludioxonil 3.5 GA/100 Kg seed, Azoxystrobin 1 GA/100 Kg seed
[6] = IFSA Inbred W-A, Fludioxonil 3.5 GA/100 Kg seed, Azoxystrobin 1 GA/100 Kg seed
[7] = IFSA Inbred W-B, Fludioxonil 3.5 GA/100 Kg seed, Azoxystrobin 1 GA/100 Kg seed
[8] = IFSA Inbred FR-C, Fludioxonil 2.5 GA/100 Kg seed
[9] = IFSA Inbred FR-D, Fludioxonil 2.5 GA/100 Kg seed
[10] = IFSA Inbred FR-F, Fludioxonil 2.5 GA/100 Kg seed
[11] = IFSA Inbred FR-G, Fludioxonil 2.5 GA/100 Kg seed
[12] = IFSA Inbred W-A, Fludioxonil 2.5 GA/100 Kg seed
[13] = IFSA Inbred W-B, Fludioxonil 2.5 GA/100 Kg seed

SMILES	GY BU (2) (Grain Yield in bushels) [1]	PC # (1) [1]	GY BU [2]	PC # [2]	GY BU [3]	PC # [3]	GY BU [4]	PC # [4]	GY BU [5]	PC # [5]	GY BU [6]	PC # [6]	GY BU [7]	PC # [7]	further results
CO/C=C(/C(=O)OC)c1ccccc1Oc1cc(Oc2ccccc2C#N)ncn1 [Azoxystrobin, azoxystrobin]	168 a BU	23232 a	187 ab BU	24086 ab	193 a BU	23574 a	179 b BU	18107 bc	89 a BU	13153 a	173 ab BU	19645 a	204 a BU	23574 ab	
N#Cc1c[nH]cc1-c1cccc2c1OC(F)(F)O2 [Fludioxonil, fludioxonil]	180 a BU	23744 a	176 b BU	23915 ab	185 a BU	24599 a	225 a BU	24428 a	85 a BU	11787 ab	180 ab BU	19986 a	204 a BU	22036 b	GY BU (2) (Grain Yield in bushels) (Fludioxonil 2.5 GA/100 Kg seed): 181 a BU; PC # (1) (Fludioxonil 2.5 GA/100 Kg seed): 23403 a; GY BU [8]: 198 a BU; PC # [8]: 24428 a; GY BU [9]: 184 a BU; PC # [9]: 23574 a; GY BU [10]: 183 b BU; PC # [10]: 19986 b; GY BU [11]: 83 a BU; PC # [11]: 13495 a; GY BU [12]: 172 ab BU; PC # [12]: 19474 a; GY BU [13]: 215 a BU; PC # [13]: 24599 a
